Data as given in BindingDB's records for doi:10.1021/np800491u (Korean Research Institute of Biosciences and Biotechnology, 2009).
pIC50: −log10 of the molar value.

Assay: Inhibition of hypoxia-induced HIF1alpha protein accumulation in human Hep3B cells treated for 30 mins measured after 12 hrs by Western blot analysis

SMILES	pIC50
CC(C)(O)C1Cc2cc3cc(-c4cc(O)cc(O)c4)oc3cc2O1 (stereo unspecified) [moracin O]	9.85
CC1(C)Oc2cc3oc(-c4cc(O)cc(O)c4)cc3cc2C[C@H]1O [(-)-Moracin P]	9.19
CC1=C[C@H]2c3c(O)cc(-c4cc5ccc(O)cc5o4)cc3O[C@@]3(c4ccc(O)cc4O)Oc4cc(O)ccc4[C@H](C1)[C@@H]23 [CHEBI:2544]	5.59
CC(C)=CCC/C(C)=C/Cc1c(O)cc(O)cc1-c1cc2ccc(O)cc2o1 [albafuran A]	5.45
CC(C)=CC[C@@]12Oc3cc(O)c([C@H]4C=C(C)C[C@H](c5ccc(O)cc5O)[C@H]4C(=O)c4ccc(O)cc4O)c(O)c3C(=O)[C@]1(O)Oc1cc(O)ccc12 [Sanggenon O]	5.99
CC(C)=CCC/C(C)=C\CC/C(C)=C\Cc1c(O)cc(O)cc1-c1cc2ccc(O)cc2o1 [mulberrofuran W]	5.44
COc1c(O)cc2oc(-c3cc(O)cc(O)c3)cc2c1CC(=O)C(C)C [Moracin Q]	5.23
Oc1cc(O)cc(-c2cc3ccc(O)cc3o2)c1 [moracin M]	< 4.30
CC(C)=CC[C@]12Oc3cc(O)c([C@H]4C=C(C)C[C@H](c5ccc(O)cc5O)[C@H]4C(=O)c4ccc(O)cc4O)c(O)c3C(=O)[C@@]1(O)Oc1cc(O)ccc12 [sanggenon C]	5.90
C[C@@]12C=C(c3c(O)cc(-c4cc5ccc(O)cc5o4)cc3O)C[C@@H](C1)c1ccc(O)cc1O2 [Mulberrofuran H]	6.85
CC(C)=CCC/C(C)=C/Cc1c(O)ccc2cc(-c3cc(O)cc(O)c3CC=C(C)C)oc12 [mulberrofuran D]	5.39
